One assay deals with printed heart. As to the kind of experiment: Fluid pressure in ventricular-like chamber of the printed heart (FIG. 11A). Type of assay: cell-based. The note with it: versus spontaneous mechanical activity of the same chamber. An excerpt:
FIG. 11A is a graph of pressure dynamics of an example printed heart using bioink described herein. […] The relatively flat line is the system baseline without contraction. Other clinically-important, physiologically complex mechanical parameters can also be measured. FIG. 11B is an optical map of an example printed heart using bioink described herein.

In assay [1] the test system is differentiated hiPSCs in the printed heart. As to the kind of experiment: Calcium traces of the printed heart, first experiment (FIG. 9). Format: cell-based, human. The note with it: complex printed heart (FIG. 9).
Assay [2] has as its system hChaMPs. As to the kind of experiment: Calcium transients in hChaMPs (Fluo-4 AM), drug response. Type of assay: cell-based, human. On the procedure:
Calcium movement in hChaMPs was recorded after recovery from lactate treatment using a DMi8 fluorescence microscope (Leica, Wetzlar, Germany). hChaMPs were first cultured with 5 μM Fluo-4 acetoxymethyl ester for 30 min at 37° C. and then washed with Tyrode's salt solution for another 30 min at 37° C. After that, the plates with hChaMPs were moved onto the microscope stage and covered with a heating plate to maintain the temperature at 37° C. Fluo-4 AM intensity was recorded at a frame rate of 6.90 Hz with 30 ms exposure time. The acquired data was processed by Fiji and a custom-written script in MATLAB (MathWorks). To generate the calcium traces, background signals of nonactive regions were subtracted from fluorescence signals of beating sites and then normalized against the baseline intensity. The effects of ionotropic drugs on calcium activity of hChaMPs were also analyzed by incubating Fluo-4 AM-treated hChaMPs with 1 μM Isoproterenol or 0.5 μM Verapamil for 10 min at 37° C. prior to being imaged. Calcium transients are presented as normalized intensity (f/f0) over time, along with the average peak amplitude and the average interspike interval.

Assay [3] has as its system hChaMPs. As to the kind of experiment: Contractility video analysis of hChaMPs. Type of assay: cell-based. Particulars: Homo sapiens; at least 3 different areas across 2 hChaMPs (FIG. 38); read-out: EC50, beat rate by contractility. An excerpt: Beating videos of hChaMPs were obtained at 4× on an Axiovert CFL 40 microscope at 8.7 frames per second. Beating rates (contraction, relaxation, and beats per minute) were obtained using an open source automated video analysis algorithm^4 with a macroblock size of 100×100 pixels and a maximum movement detection of 50 pixels to accommodate the robust movement of the tissue. For generation of a heat map of contractility over an entire hChaMP, a macroscale video was used with the macroblock size set to 25×25 pixels in the video analysis algorithm with a maximum movement detection of 20 pixels due to the lower magnification.

Assay [4] deals with hChaMP. As to the kind of experiment: Pressure-volume catheter measurement in hChaMP. Type of assay: cell-based, human. Particulars: 1 μM versus spontaneous contraction, 5 contraction cycles (FIGS. 44A, 44B). How it is done: Pulse pressure and stroke volume of hChaMPs were measured using an ADV500 PV system with a PV catheter. The hChaMP was transferred to a 10 cm dish with 20 mL RPMI plus B-27 Supplement with insulin on a heating plate pre-heated to 37° C. to ensure the working temperature was always above 30° C. The PV catheter was inserted and positioned close to the apex of hChaMP to obtain clear pressure and volume signals, and the vessel through which the catheter was inserted was tied off to stabilize the construct. Isoproterenol was given by adding 20 μL of 1 mM solution into the dish to achieve the final concentration of 1 μM. […] The volume reading was further calibrated by conducting a dye dilution test. Briefly, acellular hChaMPs were first monitored by the ADV500 PV system while being compressed and released by 1.45 mm, 2.9 mm, and 4.35 mm from the side. […] Next, the hChaMP was compressed and released by 1.45 mm depth from the side for 3 times, and the hChaMP was then removed and the bulk medium was collected and examined by a Cytation 3 microplate reader at 524 nm for absorbance from which the displaced volume could be determined. […]
The acquired data was post-processed and analyzed by a custom-written script in MATLAB. […] To examine the stroke work generated by the hChaMPs, 5 random contraction cycles were used for creating PV loops and the stroke work was determined by the area in the loops.

Assay [5] has as its system hChaMP. As to the kind of experiment: Optical mapping of voltage in hChaMP (di-4-ANEPPS). Type of assay: cell-based, human. Particulars: 1 μM (FIG. 35B). How it is done:
The hChaMP was immersed in a 10 μM solution of the voltage-sensitive dye di-4-ANEPPS in Krebs-Ringer Buffer for 20 min. After this incubation, half of the dye solution was removed and replaced with RPMI+B27 with insulin media. After 2-5 min stabilization, hChaMPs were excited with a two diode-pumped, continuous-excitation green laser (532 nm, 1 W), and fluorescence intensity was recorded for 15 seconds using 14-bit, 80×80-pixel resolution cameras at 500 frames per second. In some hChaMPs, pacing was provided at 1 and 2 Hz via a bipolar electrode and optical mapping movies were recorded during pacing. For drug testing, hChaMPs were treated with 1 μM of isoproterenol and optical mapping movies were recorded with and without pacing.
Optical action potential duration (APD) was measured at 80% repolarization, and two-dimensional (2D) APD maps were constructed to reveal the spatial distribution of APD on the hChaMP surface. Local conduction velocity (CV) was calculated as described previously. Specifically, the distributions of activation times (AT), measured at (dV/dt)max, for the spatial regions of 3×3 pixels were fitted with the plane, and gradients of activation times gx and gy were calculated for each plane along the x- and y-axes, respectively. The magnitude of the local CV was calculated for each pixel as (gx^2+gy^2)^−1/2. Mean values for CV were calculated for the visible surface. […]

pEC50: −log10 of the molar value.

The text below walks through data of patent US20220031848A1, “BIOINK FOR 3D DEPOSITION” (Regents of the University of Minnesota, priority 2018, published 2022).

`Cc1ccc2c(c1)C(=O)C1(O)CCN(c3ccccc3)C1=N2` (stereo not drawn) [blebbistatin]: in the assay with printed heart, the chamber pressure amplitude entry is “inhibited pressure amplitudes”.
In the case of `Cn1c(=O)c2c(ncn2C)n(C)c1=O` [caffeine], the “beating rate with respect to control” value in assay [1] is recorded as “accelerate”.
Take `COc1ccc(CCN(C)CCCC(C#N)(c2ccc(OC)c(OC)c2)C(C)C)cc1OC` (stereo not drawn) [verapamil]: in the assay with hChaMPs [2] (0.5 μM, 10 min at 37° C.), the calcium handling amplitude entry is listed as “decreased in amplitude”. In addition, in assay [1], the “beating rate with respect to control” value is “slow”.
As a reminder, the pEC50 is the negative decadic logarithm of the EC50, by convention in mol/L. Consider `CC(C)NCC(O)c1ccc(O)c(O)c1` (stereo not drawn) [isoproterenol], for which the calcium handling frequency entry in the assay with hChaMPs [2] (1 μM, 10 min at 37° C.) is on record as “increased in frequency”. In addition, the negative logarithm of the EC50 (pEC50) in the assay on hChaMPs [2] (Homo sapiens, 5 different areas across two hChaMPs (FIG. 31), read-out: EC50, beat rate by calcium transient activity) was 8.05; in the assay with hChaMPs [3] it was 8.05. Besides, the stroke work result with hChaMP [4] is recorded as “reduced”. Further, in the assay on hChaMP [5], the “response of electrical activity to drug stimulation” value is “responded in a dramatic and predicted fashion”.
